Measured values: ChEMBL document CHEMBL3046225, “Effects of Enantiomerism on Fungicidal and Insecticidal Activities of (-Methoxybenzyl)isoxazoles” (J Pestic Sci, 2000)
≈ marks a conversion by molar mass, not a printed value.

Key:
Myzus persicae = experiment: Insecticidal activity against Myzus persicae (green peach aphid) assessed as mortality; assay type: functional
[1] = test system: Pseudoperonospora cubensis; experiment: Fungicidal activity against Pseudoperonospora cubensis; assay type: functional, organism-based
Podosphaera fuliginea = experiment: Fungicidal activity against Podosphaera fuliginea; assay type: functional, organism-based

With CO[C@H](c1cc(C)no1)c1ccccc1/C=N/N=C(\C)c1ccc(Cl)c(Cl)c1 the LC50 (Myzus persicae) was greater than 250 µg/mL, the EC50 [1] was greater than 500 ppm and the EC50 (Podosphaera fuliginea) was 8.8 ppm.

For CO[C@@H](c1cc(C)no1)c1ccccc1/C=N/N=C(\C)c1ccc(Cl)c(Cl)c1, the LC50 (Myzus persicae) was 20 µg/mL (≈ 48 µM), the EC50 [1] was 16 ppm and the EC50 (Podosphaera fuliginea) was 0.7 ppm.

Molecule COC(c1cc(C)no1)c1ccccc1/C=N/N=C(\C)c1ccc(Cl)c(Cl)c1 (racemic) has an LC50 (Myzus persicae) of 53 µg/mL (≈ 127 µM), an EC50 [1] of 32 ppm and an EC50 (Podosphaera fuliginea) of 2 ppm.
